Like-named read-outs stand apart in the source and are kept apart here.
Molecular target: hT2R8 (Homo sapiens (Human), UniProt Q9NYW2)
Test: hT2R8 antagonist high-throughput FLIPR assay, stable cell line with G16g44, agonist andrographolide
Format: cell-based
Summary of the method: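 Antagonist screen: compounds co-applied with agonist andrographolide at 200 μM, a dose giving 70–80% of maximal hT2R8 activation. Fluorescence measured by FLIPR in a stable HEK293 line expressing both hT2R8 and the promiscuous G16g44 protein.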

[1] = read-out: IC50 on hT2R8 bitter receptor
[2] = table after Example 10-97, read-out: hT2R8 IC50
[3] = table after Example 12-37, read-out: hT2R8 IC50
[4] = unit uM, read-out: IC50 on hT2R08 bitter receptor

Chain of hT2R8 (Q9NYW2 whole entry): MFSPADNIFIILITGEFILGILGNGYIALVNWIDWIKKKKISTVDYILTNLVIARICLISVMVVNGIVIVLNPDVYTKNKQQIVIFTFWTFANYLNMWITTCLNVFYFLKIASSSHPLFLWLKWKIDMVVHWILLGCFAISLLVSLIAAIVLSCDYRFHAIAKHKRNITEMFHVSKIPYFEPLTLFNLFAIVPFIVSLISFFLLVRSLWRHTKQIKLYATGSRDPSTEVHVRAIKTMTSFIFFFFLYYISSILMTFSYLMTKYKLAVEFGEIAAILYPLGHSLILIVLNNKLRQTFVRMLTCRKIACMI

Row | SMILES | IC50 (Table A, read-out: hT2R8 IC50) | IC50 [1] | other results
1 | COc1cc(OC)cc(C(=O)Nc2cnn(Cc3c(C)noc3C)c2)c1 [Example 4-18, N-(1-((3,5-dimethylisoxazol-4-yl)methyl)-1H-pyrazol-4-yl)-3,5-dimethoxybenzamide] | 0.28 µM | – | –
2 | COc1cc(C(=O)Nc2cnn(Cc3c(C)noc3C)c2)ccc1O [Example 4-20, N-(1-((3,5-dimethylisoxazol-4-yl)methyl)-1H-pyrazol-4-yl)-4-hydroxy-3-methoxybenzamide] | 0.48 µM | – | –
3 | Cc1noc(C)c1Cn1cc(N2C(=O)N(Cc3ccccc3C(=O)O)C(C)(C)C2=O)cn1 [Example 12-91, 2-((3-(1-((3,5-dimethylisoxazol-4-yl)methyl)-1H-pyrazol-4-yl)-5,5-dimethyl-2,4-dioxoimidazolidin-1-yl)methyl)benzoic acid] | – | – | IC50 [3]: 4.23 µM
4 | Cc1noc(C)c1Cn1cc(N2C(=O)CN(Cc3cccc(F)c3)C2=O)cn1 [Example 10-27, 3-(1-((3,5-dimethylisoxazol-4-yl)methyl)-1H-pyrazol-4-yl)-1-(3-fluorobenzyl)imidazolidine-2,4-dione] | – | – | IC50 [2]: 0.058 µM; IC50 [4]: 0.06 µM
5 | Cc1noc(C)c1Cn1cc(N(C)C(=O)C(C)c2ccccc2)cn1 (stereo not drawn) [Example 4-65, N-(1-((3,5-dimethylisoxazol-4-yl)methyl)-1H-pyrazol-4-yl)-N-methyl-2-phenylpropanamide] | 2.81 µM | – | –
6 | COc1ccccc1NC(=S)Nc1cnn(Cc2c(C)noc2C)c1 [Example 4-106, 1-(1-((3,5-dimethylisoxazol-4-yl)methyl)-1H-pyrazol-4-yl)-3-(2-methoxyphenyl)thiourea] | 2.61 µM | – | –
7 | Cc1ccccc1CN1CC(=O)N(c2cnn(Cc3c(C)noc3C)c2)C1=O [Example 10-20, 3-(1-((3,5-dimethylisoxazol-4-yl)methyl)-1H-pyrazol-4-yl)-1-(2-methylbenzyl)imidazolidine-2,4-dione] | – | – | IC50 [2]: 0.133 µM; IC50 [4]: 0.1 µM
8 | Cc1noc(C)c1Cn1cc(N2C(=O)CN(Cc3ccccc3N)C2=O)cn1 [Example 10-34, 1-(2-aminobenzyl)-3-(1-((3,5-dimethylisoxazol-4-yl)methyl)-1H-pyrazol-4-yl)imidazolidine-2,4-dione] | – | – | IC50 [2]: 0.163 µM; IC50 [4]: 0.02 µM
9 | Cc1noc(C)c1Cn1cc(N2C(=O)CN(Cc3cc(C)n(C)n3)C2=O)cn1 [Example 10-28, 1-((1,5-dimethyl-1H-pyrazol-3-yl)methyl)-3-(1-((3,5-dimethylisoxazol-4-yl)methyl)-1H-pyrazol-4-yl) imidazolidine-2,4-dione] | – | – | IC50 [2]: 0.322 µM; IC50 [4]: 0.3 µM
10 | Cc1noc(C)c1Cn1cc(N2C(=O)N(Cc3ccccn3)C(C)(C)C2=O)cn1 [Example 12-61, 3-(1-((3,5-dimethylisoxazol-4-yl)methyl)-1H-pyrazol-4-yl)-5,5-dimethyl-1-(pyridin-2-ylmethyl)imidazolidine-2,4-dione] | – | – | IC50 [3]: 0.26 µM
11 | CCOc1cccc(C(=O)Nc2cnn(Cc3c(C)noc3C)c2)c1 [Example 4-59, N-(1-((3,5-dimethylisoxazol-4-yl)methyl)-1H-pyrazol-4-yl)-3-ethoxybenzamide] | 0.22 µM | – | –
12 | COC(C(=O)Nc1cnn(Cc2c(C)noc2C)c1)c1ccccc1 (stereo not drawn) [Example 4-43, N-(1-((3,5-dimethylisoxazol-4-yl)methyl)-1H-pyrazol-4-yl)-2-methoxy-2-phenylacetamide] | 3.43 µM | – | –
13 | Cc1noc(C)c1Cn1cc(NC(=O)c2ccc3[nH]nnc3c2)cn1 [Example 4-87, N-(1-((3,5-dimethylisoxazol-4-yl)methyl)-1H-pyrazol-4-yl)-1H-benzo[d][1,2,3]triazole-5-carboxamide] | 0.6 µM | – | –
14 | COc1ccccc1CCN1C(=O)N(c2cnn(Cc3c(C)noc3C)c2)C(=O)C1(C)C [Example 12-58, 3-(1-((3,5-dimethylisoxazol-4-yl)methyl)-1H-pyrazol-4-yl)-1-(2-methoxyphenethyl)-5,5-dimethylimidazolidine-2,4-dione] | – | – | IC50 [3]: 0.24 µM
15 | CCc1nc2cc(C(=O)Nc3cnn(Cc4c(C)noc4C)c3)ccc2o1 [Example 4-81, N-(1-((3,5-dimethylisoxazol-4-yl)methyl)-1H-pyrazol-4-yl)-2-ethylbenzo[d]oxazole-5-carboxamide] | 0.8 µM | – | –
16 | Cc1noc(C)c1Cn1cc(NS(=O)(=O)c2ccccc2F)cn1 [Example 4-100, N-(1-((3,5-dimethylisoxazol-4-yl)methyl)-1H-pyrazol-4-yl)-2-fluorobenzenesulfonamide] | 8.51 µM | – | –
17 | Cc1noc(C)c1Cn1cc(NC(=O)Cc2ccoc2)cn1 [Example 4-58, N-(1-((3,5-dimethylisoxazol-4-yl)methyl)-1H-pyrazol-4-yl)-2-(furan-3-yl)acetamide] | 8.66 µM | – | –
18 | Cc1cccc(C(=O)Nc2cnn(Cc3c(C)noc3C)c2)n1 [Example 4-48, N-(1-((3,5-dimethylisoxazol-4-yl)methyl)-1H-pyrazol-4-yl)-6-methylpicolinamide] | 1.95 µM | – | –
19 | COc1cc(C(=O)Nc2cnn(Cc3c(C)noc3C)c2)cc2c1OC(C)O2 (stereo not drawn) [Example 4-94, N-(1-((3,5-dimethylisoxazol-4-yl)methyl)-1H-pyrazol-4-yl)-7-methoxy-2-methylbenzo[d][1,3]dioxole-5-carboxamide] | – | 0.7 µM | –
20 | Cc1noc(C)c1Cn1cc(N(C)C(=O)C2(c3ccccc3)CC2)cn1 [Example 4-66, N-(1-((3,5-dimethylisoxazol-4-yl)methyl)-1H-pyrazol-4-yl)-N-methyl-1-phenylcyclopropanecarboxamide] | 8.23 µM | – | –
21 | Cc1noc(C)c1Cn1cc(NC(=O)/C=C/c2ccccc2)cn1 [Example 4-15, N-(1-((3,5-dimethylisoxazol-4-yl)methyl)-1H-pyrazol-4-yl)cinnamamide] | – | 0.7 µM | –
22 | Cc1nc2ccc(C(=O)Nc3cnn(Cc4c(C)noc4C)c3)cc2o1 [Example 4-83, N-(1-((3,5-dimethylisoxazol-4-yl)methyl)-1H-pyrazol-4-yl)-2-methylbenzo[d]oxazole-6-carboxamide] | 0.7 µM | – | –
23 | Cc1noc(C)c1Cn1cc(NC(=O)c2ccncc2)cn1 [Example 4-50, N-(1-((3,5-dimethylisoxazol-4-yl)methyl)-1H-pyrazol-4-yl)isonicotinamide] | 4.59 µM | – | –
24 | Cc1noc(C)c1Cn1cc(NC(=O)C2CCCCC2)cn1 [Example 4-61, N-(1-((3,5-dimethylisoxazol-4-yl)methyl)-1H-pyrazol-4-yl)cyclohexanecarboxamide] | 2.2 µM | – | –
25 | Cc1noc(C)c1Cn1cc(NC(=O)CC(C)c2ccccc2)cn1 (stereo not drawn) [Example 4-12, N-(1-((3,5-dimethylisoxazol-4-yl)methyl)-1H-pyrazol-4-yl)-3-phenylbutanamide] | – | 0.28 µM | –
26 | Cc1noc(C)c1Cn1cc(N2C(=O)N[C@@H](Cc3ccccc3)C2=O)cn1 [Example 10-3, (S)-5-benzyl-3-(1-((3,5-dimethylisoxazol-4-yl)methyl)-1H-pyrazol-4-yl)imidazolidine-2,4-dione] | – | – | IC50 [2]: 0.113 µM
27 | Cc1noc(C)c1Cn1cc(NC(=S)Nc2cccnc2)cn1 [Example 4-107, 1-(1-((3,5-dimethylisoxazol-4-yl)methyl)-1H-pyrazol-4-yl)-3-(pyridin-3-yl)thiourea] | 3 µM | – | –

Further lines, with some results ahead:

Row | IC50 (Table A, read-out: hT2R8 IC50) | IC50 [1] | SMILES | other results
28 | – | 0.26 µM | COc1ccc(CCN2CC(=O)N(c3cnn(Cc4c(C)noc4C)c3)C2=O)cc1OC [Example 10-87, 1-(3,4-dimethoxyphenethyl)-3-(1-((3,5-dimethylisoxazol-4-yl)methyl)-1H-pyrazol-4-yl)imidazolidine-2,4-dione] | IC50 [2]: 0.137 µM
29 | – | 0.1 µM | Cc1ccccc1CN1C(=O)N(c2cnn(Cc3c(C)noc3C)c2)C(=O)C1(C)C [Example 12-22, 3-(1-((3,5-dimethylisoxazol-4-yl)methyl)-1H-pyrazol-4-yl)-5,5-dimethyl-1-(2-methylbenzyl)imidazolidine-2,4-dione] | –
30 | – | 3 µM | Cc1noc(C)c1Cn1cc(N2C(=O)NC(CO)C2=O)cn1 (stereo not drawn) [Example 10-97, 3-(1-((3,5-dimethylisoxazol-4-yl)methyl)-1H-pyrazol-4-yl)-5-(hydroxymethyl)imidazolidine-2,4-dione] | –
31 | – | 0.23 µM | COc1cccc(CN2CC(=O)N(c3cnn(Cc4c(C)noc4C)c3)C2=O)n1 [Example 10-75, 3-(1-((3,5-dimethylisoxazol-4-yl)methyl)-1H-pyrazol-4-yl)-1-((6-methoxypyridin-2-yl)methyl)imidazolidine-2,4-dione] | IC50 [2]: 0.229 µM
32 | – | 0.59 µM | COCCN1C(=O)N(c2cnn(Cc3c(C)noc3C)c2)C(=O)C1(C)C [Example 12-28, 3-(1-((3,5-dimethylisoxazol-4-yl)methyl)-1H-pyrazol-4-yl)-1-(2-methoxyethyl)-5,5-dimethylimidazolidine-2,4-dione] | –
33 | – | 0.06 µM | CCCn1c(=O)n(-c2cnn(Cc3c(C)noc3C)c2)c(=O)n1Cc1ccccc1 [Example 10-93, 1-benzyl-4-(1-((3,5-dimethylisoxazol-4-yl)methyl)-1H-pyrazol-4-yl)-2-propyl-1,2,4-triazolidine-3,5-dione] | IC50 [2]: 0.062 µM
34 | – | 0.13 µM | Cc1noc(C)c1Cn1cc(N2C(=O)N(Cc3cccc(O)c3)C(C)(CO)C2=O)cn1 (stereo not drawn) [Example 12-10, 3-(1-((3,5-dimethylisoxazol-4-yl)methyl)-1H-pyrazol-4-yl)-1-(3-hydroxybenzyl)-5-(hydroxymethyl)-5-methylimidazolidine-2,4-dione] | –
35 | – | 0.9 µM | Cc1noc(C)c1Cn1cc(N2C(=O)CN(Cc3cccc(CNC(=O)OC(C)(C)C)c3)C2=O)cn1 [Example 10-96, tert-butyl 3-((3-(1-((3,5-dimethylisoxazol-4-yl)methyl)-1H-pyrazol-4-yl)-2,4-dioxoimidazolidin-1-yl)methyl)benzylcarbamate] | IC50 [2]: 0.891 µM
36 | – | 0.68 µM | Cc1noc(C)c1Cn1cc(N2C(=O)CN(Cc3ccccn3)C2=O)cn1 [Example 10-54, 3-(1-((3,5-dimethylisoxazol-4-yl)methyl)-1H-pyrazol-4-yl)-1-(pyridin-2-ylmethyl)imidazolidine-2,4-dione] | IC50 [2]: 0.609 µM
